{"source": "patent US20070254907A1", "about": "“COMPOSITIONS AND METHODS FOR CONTROLLING INFESTATION” (HATCHTECH PTY LTD, priority 2003, published 2007)", "key": {"[1]": {"tested_on": "proteases in egg shell washings (ESW) of lice eggs", "test": "Gelatin substrate SDS-PAGE of lice egg shell washings (ESW) incubated with protease inhibitors", "format": "biochemical, Pediculus humanus humanus", "method": "Within 12 hours of hatching 50 body lice eggs (Pediculus humanus humanus) were removed from the hair and placed in a 1 mL eppendorf tube. 20 μL of distilled water was added to the unhatched eggs and the preparation incubated for 30 minutes at 32° C. The 20 μL was recovered, freeze dried and stored at −70° C. This sample was referred to as sample 1. A number of other samples were also collected as described. Sample 2 was collected by removing the unhatched louse eggs from four hairs that were approximately 3 cm long, cutting the hair into 0.5 cm lengths, and placing them into a microfuge tube containing 20 μl of distilled water and incubating at 32° C. for 30 minutes. Sample 3 was collected as for sample 2, but the hair was placed in a tube containing 10 mL of 1% sodium hypochlorite for 1 minute followed by five 1 minute washes in 25 mL of distilled water to remove the sodium hypochlorite before being incubated in a microfuge tube containing 20 μl of distilled water and incubated as for Sample 2. Sample 4 was collected from unhatched eggs which were removed from the hair and washed with 1% sodium hypochlorite and incubated in 20 μl of distilled water in the same manner as the hair in Sample 3. Finally, Sample 5 was collected from eggs that were within 24 hrs of hatching which were washed with 1% sodium hypochlorite, then returned to the incubator at 32° C. until they hatched, the empty egg shells collected 0-2 hrs after egg-hatching, placed in a 1 mL microfuge tube containing 20 μl of distilled water and incubated as for Samples 1-4. For all samples 1-5 the 20 μl of fluid was recovered, freeze-dried and stored at −70° C. The washings recovered from these freshly hatched egg shells are referred to as egg-shell-washings (ESWs). In order to look for the presence of proteases present in these different samples, the freeze-dried samples were resuspended in 15 μL of non-reducing SDS sample buffer, centrifuged at 10,000 g for 2 minutes and the entire 15 μL loaded on to 10% gelatine substrate SDS-PAGE gels. Gels were run at 4° C. for 10 minutes at 10 mA followed by a further 25 minutes at 15 mA per gel. They were then incubated for 2×20 minutes in a 2.5% Triton-X 100 solution followed by a three hour incubation in 0.1M Tris/HCl containing 1 mM CaCl2 pH 8.0. Activity was detected as clear areas on the gel the result of protease activity degrading the gelatine within the gel.\nProtease activity in the ESWs from louse eggs was also examined using two-dimensional gel electrophoresis. It was necessary to collect large numbers of freshly hatched egg shells. Following egglaying onto pieces of cloth, adult female lice were removed and the cloth with the eggs washed with 1% sodium hypochlorite as for collection of ESWs. The eggs were then returned to the incubator and permitted to hatch. Typically 100 to 500 hatched egg shells were collected (0-2 hours post hatching), placed in a microfuge tube containing 200 μl of distilled water, incubated and sample treated as described above. For analysis, ESWs were resuspended in rehydration buffer (8 M Urea, 2% 3-[(3-cholamidopropyl) dimethylammonio]-1-propanesulfonate 2% Immobilised pH gradient buffer 3-10 (Amersham Phamacia Biotech, Uppsala, Sweden)) and used to rehydrate 7 cm Immobiline Dry strips pH 3-10 (Amersham Bioscience) overnight. Strips were transferred to the Multiphor II (Pharmacia, Sweden) apparatus, electrophoresed in the first dimension at 200 V for 1 min, increasing to 3,500 V over the next 90 min followed by 65 min at 3,500 V, equilibrated (6 M urea, 30% glycerol, 50 mM Tris pH 8.8 and 2% SDS) and then run on a 10% SDS-PAGE gel containing 0.1% gelatin for the second dimension. The gel was then run and developed as previously described.\n10% SDS-PAGE gelatine substrate gels were loaded with freeze dried egg shell washings from 100 lice eggs that had been resuspended in 50 μL of non-reducing sample buffer with samples run at 10 μL per lane. […]"}, "[2]": {"tested_on": "Lice (L) and Plutella (P) eggs", "test": "whole plant or invertebrate", "conditions": "read-out: Ovicidal activity %"}, "head lice egg": {"tested_on": "head lice egg", "test": "Head lice egg hatching, time course", "format": "in vivo, Pediculus humanus capitus", "conditions": "10 mM; for inhibition at 10000 µM: Pediculus humanus, 10 minutes, read-out: Percent inhibition of egg hatching relative to the control", "method": "Tests were carried out to determine if metal chelating agent and metalloprotease inhibitor 1,10-phenanthroline could inhibit head lice egg (Pediculus humanus capitus) hatching as opposed to body lice. Head lice eggs were obtained by placing groups of both 1-2 adult male and 6-8 adult female head lice in separate wells in a 24 well petri dish containing cotton cloth. The petri dish was transferred to a humid incubator at 32° C., 70% RH for 12 hours to permit the female lice to lay their eggs. After 12 hours, all adult lice were removed from the petri dish wells and a series of time-course experiments conducted. A group of eggs (24 hr old) was treated for 10 minutes with 200 μL of a 10 mM solution of 1,10-phenanthroline. A control (ie no inhibitor treatment) group of eggs was also included. The eggs were removed from the inhibitor, blotted dry on tissue paper, placed at 32° C., 70% RH and left to hatch. A second group of eggs, (48 hours old) were treated as previously described and also left to hatch. This process was repeated at 24 hour intervals on head lice eggs up to 120 hours post laying. This method of assaying inhibitors more closely mirrors the field situation where lice eggs will be at various stages of development on the head and permits the inhibitory effects to be observed on these different stages of the parasite."}, "H. contortus eggs": {"tested_on": "H. contortus eggs", "test": "Egg hatching in Haemonchus contortus", "format": "in vivo", "method": "In an attempt to improve control of H. contortus the effects of the compound 5,5′-dimethyl-2,2′-dipyridyl was examined on H. contortus eggs. Eggs were recovered from the faeces of infected sheep using a standard sucrose floatation method. The eggs were corrected to a density of approximately 2,500 eggs per mL and were then exposed to varying concentrations of compound and incubated for 48 hours at 25° C. The eggs were then examined to determine the ovicidal efficacy of the compound in comparison to untreated control and a solvent only control.\nIn addition, the ovicidal efficacy of the compound 2-acetyl-1-tetralone was examined against H. contortus (FIG. 10). The same protocol was used as described for 5,5′-dimethyl-2,2′-dipyridyl."}}, "note": "Where two headings read alike, the source gives them in different places."}
{"smiles": "c1cnc2c(c1)ccc1cccnc12", "note": "[1,10-phenanthroline, reference compound]", "values": [{"measurement": "protease activity of ESW, two dimensional gel electrophoresis", "setting": "[1]; gel incubated with 10 mM inhibitor", "result": "general reduction in protease activity in the 25-30 kDa region and a clear reduction in the proteases present around the 50 kDa region and above 75 kDa"}, {"measurement": "protease activity of ESW on gelatin SDS-PAGE compared to untreated controls", "setting": "[1]; gel strips incubated with inhibitor: PMSF 5 mM, 1,10-phenanthroline 10 mM, EDTA 10 mM, pepstatin 5 μM, E-64 10 μM", "result": "reduction in protease activity"}, {"measurement": "inhibition at 10000 µM", "setting": "[2]", "result": 100, "unit": "%"}, {"measurement": "inhibition of egg hatching in head lice", "setting": "head lice egg", "result": "significantly inhibit egg hatching in head lice"}, {"measurement": "inhibition at 10000 µM", "setting": "head lice egg; treated day 1 post laying", "result": 100, "unit": "%"}, {"measurement": "inhibition at 10000 µM", "setting": "head lice egg; treated day 2 post laying", "result": 87, "unit": "%"}, {"measurement": "inhibition at 10000 µM", "setting": "head lice egg; treated day 3 post laying", "result": 88, "unit": "%"}, {"measurement": "inhibition at 10000 µM", "setting": "head lice egg; treated day 4 post laying", "result": 100, "unit": "%"}, {"measurement": "inhibition at 10000 µM", "setting": "head lice egg; treated day 5 post laying", "result": 100, "unit": "%"}]}
{"smiles": "Cc1ccc(-c2ccc(C)cn2)nc1", "note": "[5,5′-dimethyl-2,2′-dipyridyl]", "values": [{"measurement": "ovicidal efficacy on H. contortus eggs", "setting": "H. contortus eggs; 180 and 18 ug/mL (1 and 0.1 mM), 48 hours at 25° C. (FIG. 8)", "result": "potently ovicidal"}, {"measurement": "effectiveness at inhibiting H. contortus egg hatching compared to ivermectin", "setting": "H. contortus eggs; FIG. 8 versus FIG. 9", "result": "~10", "unit": "×"}]}
